# US9134245B2, “Cell-based antioxidant protection assay” (Natural Immune Systems, Inc., priority 2007, dated 2015)
# Test system: red blood cells (RBC)
# Test: CAP-e assay (RBC treated with test sample, washed, lysed; CM-H2DCFDA fluorescence after oxidative challenge)
# Assay type: cell-based, human
# Details: for inhibition of oxidative damage: hydroxyl free radical generator H2O2 compared with peroxyl free radical generator AAPH: dose response curves, FIG. 2 and FIG. 3
# Procedure: Whole blood was collected from healthy volunteers. A double density gradient was prepared, where 3 ml of HISTOPAQUE® 1099 was overlaid with 3 ml of HISTOPAQUE® 1077. 5-6 ml of whole anticoagulated blood was layered on top of the double gradient and centrifuged for 25 minutes at 2400 rpm. The plasma, peripheral blood mononuclear cells, polymorphonuclear cells, and HISTOPAQUE® were removed using a transfer pipette. The remaining packed red blood cell fraction was washed three times in 10-14 ml PBS by centrifugation at 2400 rpm for 10 minutes. After the third wash the supernatant was removed, and the packed RBC were aliquoted for storage by pipetting 200 μl packed RBC into 10 ml PBS. The RBC aliquots were stored at 4-8° C. until use. The cells were used the same day or after up to 120 days of storage. For most routine testing, the RBC were typically prepared 2-4 weeks before use.
# The antioxidant standard gallic acid (GA) was prepared by dissolving 85 mg of GA in 0.5 ml of 99.95% methanol. 0.2 ml of the dissolved GA was immediately diluted in 49.8 ml of PBS. Serial five-fold dilutions of the GA solution were prepared in PBS.
# The serial dilutions of the extract and the GA standard were aliquoted in duplicate in a deep-well microplate. 100 μl of the RBC suspension was added to each well. The plate was incubated for 20 minutes at room temperature in the dark. Unabsorbed antioxidants were removed by washing the RBC three times in PBS by centrifugation for 2.5 minutes at 2400 rpm. The RBC pellets were lysed by incubation in 0.08 ml distilled water for 5 minutes at room temperature.
# The fluorescent probe was prepared by reconstituting 50 μg CM-H2DCFDA in 0.2 ml anhydrous dimethyl sulfoxide, which was then added to 7.5 ml PS. After lysis of RBC was complete 70 μl of the lysed RBC were transferred to a black microplate and 50 μl of CM-H2DCFDA was added to each well (16.25 μM CM-H2DCFDA). The microplate was incubated for 20 minutes at room temperature or 37° C. in the dark. Then 50 μl H2O2 (0.0004% final concentration) or 50 μl AAPH (1 mg/ml final concentration) was added to each well. Wells exposed to H2O2 were incubated for 5 minutes at room temperature in the dark. Wells exposed to AAPH were incubated for one hour at room temperature or 37° C. in the dark. Fluorescence intensity was measured in a Tecan Spectrafluor fluorescence plate reader with excitation at 485 nm and emission at 535 nm.
# Negative controls were RBC which were not treated with a test sample or standard and were not exposed to an oxidative challenge. Positive controls were RBC which were not treated with a test sample or standard, but were exposed to an oxidative challenge. The percent inhibition of oxidative damage was calculated as [(fluorescence intensity of RBC treated with free radical generator−fluorescence intensity of RBC treated with test sample and free radical generator)/(fluorescence intensity of RBC treated with free radical generator−fluorescence intensity of untreated RBC)]×100.
# The CAP-e value of a given test product is based on the comparison of the dose-response of inhibition of oxidative damage between the standard gallic acid (GA) and the test sample. For each test sample or compound, the IC50 for inhibition of oxidative damage is calculated. […] The CAP-e units of GA was set as 1,000 Gallic Acid Equivalents (GAE). […] The CAP-e value was expressed as CAP-e units/g of sample.
SMILES,"IC50 (Homo sapiens, Erythrocyte, determined from more than 60 independent experiments, read-out: IC50 for inhibition of oxidative damage) [mg/L]","amount needed for the same level of protection, RBC from older person versus younger person (RBC from a person over 85 years versus under 50 years of age, H2O2, FIG. 11)",inhibition of oxidative damage: hydroxyl free radical generator H2O2 compared with peroxyl free radical generator AAPH,"protection of RBC from damage from both free radical generators (H2O2 and AAPH, at higher concentrations)"
"O=C(O)c1cc(O)c(O)c(O)c1 [GA, gallic acid]",32,More GA was required,equally effective,
"Cc1c(C)c2c(c(C)c1O)CCC(C)(C(=O)O)O2 (centres unmarked) [TROLOX®, 6-hydroxy-2,5,7,8-tetramethylchroman-2-carboxylic acid]",,,more effective against hydroxyl free radicals at lower concentrations,protected RBC from damage
